We go through 14 compounds from ChEMBL document CHEMBL5465560, “Selectivity Literature for EUbOPEN Chemogenomic Library” (2024).

In assay [1] the target is ALK tyrosine kinase receptor (Homo sapiens, UniProt Q9UM73). The experiment in a line: Selectivity interaction (Upstate Kinase Profiler service (Millipore)) EUB0000056c ALK. As to conditions: at 1 µM.
Assay [2] concerns the target Epidermal growth factor receptor (Homo sapiens, UniProt P00533). To be noted: at 10 µM.
Assay [3] addresses Mitogen-activated protein kinase kinase kinase kinase 4 (Homo sapiens, UniProt O95819). The experiment in a line: Selectivity interaction (KinomeScan (DiscoverX)) EUB0001079a MAP4K4. To be noted: at 1 µM.
Assay [4] has as its target Tyrosine-protein kinase Lck (Homo sapiens, UniProt P06239). The experiment in a line: Selectivity interaction (KinomeScan (DiscoverX)) EUB0000092b LCK. To be noted: at 10 µM.
For assay [5], the system named is Proto-oncogene tyrosine-protein kinase receptor Ret (Homo sapiens), P07949 [V804L]. The experiment in a line: (§1) Selectivity interaction (KinomeScan (DiscoverX)) EUB0001049a RET. To be noted: at 1 µM.
The test system of assay [6] is Proto-oncogene tyrosine-protein kinase receptor Ret (Homo sapiens), P07949 [V804M]. The assay is described as §1. As to conditions: at 1 µM.
Assay [7] deals with Proto-oncogene tyrosine-protein kinase receptor Ret (Homo sapiens, UniProt P07949). The assay is described as §1. To be noted: at 1 µM.
Assay [8] concerns Proto-oncogene tyrosine-protein kinase receptor Ret (Homo sapiens), P07949 [M918T]. Described as §1. To be noted: at 1 µM.
The nature of assay [9]: Selectivity interaction (KinomeScan (DiscoverX)) EUB0000695a CDK2H. As to conditions: at 100 nM.
The target in another assay is Nischarin (Homo sapiens) (UniProt Q9Y2I1). The experiment in a line: Selectivity interaction (Eurofins CEREP Diversity Profile (receptors and ion channels)) EUB0000279b NISCH. As to conditions: at 10 µM.
Assay [10] concerns the target Casein kinase I isoform delta (Homo sapiens, UniProt P48730). The experiment in a line: Selectivity interaction (KinomeScan (DiscoverX)) EUB0000045b CSNK1D.
The target in assay [11] is Proto-oncogene tyrosine-protein kinase Src (Homo sapiens, UniProt P12931). The experiment in a line: Selectivity interaction (KinomeScan (DiscoverX)) EUB0000045b SRC.
Sequence of Proto-oncogene tyrosine-protein kinase Src (P12931 2-536 limits assumed): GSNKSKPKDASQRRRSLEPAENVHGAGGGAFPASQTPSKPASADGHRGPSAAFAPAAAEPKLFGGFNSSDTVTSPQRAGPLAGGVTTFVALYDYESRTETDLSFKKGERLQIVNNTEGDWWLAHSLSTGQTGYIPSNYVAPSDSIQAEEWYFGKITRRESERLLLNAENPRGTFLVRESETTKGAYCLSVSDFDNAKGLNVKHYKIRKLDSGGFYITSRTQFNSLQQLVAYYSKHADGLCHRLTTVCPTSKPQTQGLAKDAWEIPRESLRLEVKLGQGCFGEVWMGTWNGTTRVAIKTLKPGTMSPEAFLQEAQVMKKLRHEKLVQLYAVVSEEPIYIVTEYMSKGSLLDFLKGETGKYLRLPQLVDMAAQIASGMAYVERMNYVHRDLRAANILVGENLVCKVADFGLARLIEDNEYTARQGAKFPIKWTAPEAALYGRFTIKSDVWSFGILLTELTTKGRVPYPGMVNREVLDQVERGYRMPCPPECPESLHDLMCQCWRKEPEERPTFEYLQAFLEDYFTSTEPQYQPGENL
Assay [12] concerns the target Fibroblast growth factor receptor 3 (Homo sapiens, UniProt P22607). The experiment in a line: (§2) Selectivity interaction (KinomeScan (DiscoverX)) EUB0000666a FGFR3. As to conditions: at 10 µM.
Assay [13] concerns Fibroblast growth factor receptor 3 (Homo sapiens), P22607 [G697C]. The assay is described as §2. To be noted: at 10 µM.
Sequence of Fibroblast growth factor receptor 3 (Homo sapiens), P22607 [G697C] (P22607 whole entry G697C): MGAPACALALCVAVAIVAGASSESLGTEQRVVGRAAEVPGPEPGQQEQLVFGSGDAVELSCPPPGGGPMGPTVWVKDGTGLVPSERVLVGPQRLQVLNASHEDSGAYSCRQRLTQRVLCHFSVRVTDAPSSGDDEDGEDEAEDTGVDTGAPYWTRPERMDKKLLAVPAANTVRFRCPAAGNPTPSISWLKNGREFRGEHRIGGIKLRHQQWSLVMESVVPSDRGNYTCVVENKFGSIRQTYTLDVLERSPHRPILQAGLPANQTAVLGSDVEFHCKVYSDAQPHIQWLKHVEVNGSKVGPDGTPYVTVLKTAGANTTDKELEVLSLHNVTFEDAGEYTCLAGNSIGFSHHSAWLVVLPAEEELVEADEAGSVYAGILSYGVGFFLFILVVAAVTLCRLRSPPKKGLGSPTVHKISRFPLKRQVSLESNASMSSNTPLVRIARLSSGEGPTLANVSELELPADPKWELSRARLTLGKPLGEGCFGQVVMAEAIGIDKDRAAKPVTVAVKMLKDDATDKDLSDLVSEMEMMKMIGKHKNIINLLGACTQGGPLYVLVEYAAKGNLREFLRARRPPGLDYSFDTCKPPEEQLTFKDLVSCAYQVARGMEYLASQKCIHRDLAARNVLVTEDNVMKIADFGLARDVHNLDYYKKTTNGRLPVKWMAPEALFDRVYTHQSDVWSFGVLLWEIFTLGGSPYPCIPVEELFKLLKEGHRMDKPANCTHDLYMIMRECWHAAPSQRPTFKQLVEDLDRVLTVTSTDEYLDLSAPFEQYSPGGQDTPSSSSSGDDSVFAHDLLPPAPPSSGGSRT
Assay [14] deals with Protein kinase C alpha type (Homo sapiens, UniProt P17252). The experiment in a line: Selectivity interaction (Kinase panel (Z-LYTE Assay)) EUB0001632a PRKCA. To be noted: at 10 µM.
Assay [15] addresses Ribosomal protein S6 kinase alpha-1 (Homo sapiens, UniProt Q15418). The experiment in a line: Selectivity interaction (ActivX KiNativ screen (kinase selectivity in THP-1 cell lysates)) EUB0000639a RPS6KA1. In kind it is subcellular. As to conditions: lysate, at 0.2 µM.
Assay [16] concerns the target Ribosomal protein S6 kinase alpha-5 (Homo sapiens) (UniProt O75582). As to conditions: at 10 µM.
In assay [17] the target is Tyrosine-protein kinase JAK1 (Homo sapiens, UniProt P23458). The experiment in a line: Selectivity interaction (ActivX KiNativ screen (ex vivo kinase selectivity in human PBMCs)) EUB0001619a JAK1. To be noted: PBMC, at 1 µM. The format is cell-based.
Sequence of Tyrosine-protein kinase JAK1 (P23458 whole entry): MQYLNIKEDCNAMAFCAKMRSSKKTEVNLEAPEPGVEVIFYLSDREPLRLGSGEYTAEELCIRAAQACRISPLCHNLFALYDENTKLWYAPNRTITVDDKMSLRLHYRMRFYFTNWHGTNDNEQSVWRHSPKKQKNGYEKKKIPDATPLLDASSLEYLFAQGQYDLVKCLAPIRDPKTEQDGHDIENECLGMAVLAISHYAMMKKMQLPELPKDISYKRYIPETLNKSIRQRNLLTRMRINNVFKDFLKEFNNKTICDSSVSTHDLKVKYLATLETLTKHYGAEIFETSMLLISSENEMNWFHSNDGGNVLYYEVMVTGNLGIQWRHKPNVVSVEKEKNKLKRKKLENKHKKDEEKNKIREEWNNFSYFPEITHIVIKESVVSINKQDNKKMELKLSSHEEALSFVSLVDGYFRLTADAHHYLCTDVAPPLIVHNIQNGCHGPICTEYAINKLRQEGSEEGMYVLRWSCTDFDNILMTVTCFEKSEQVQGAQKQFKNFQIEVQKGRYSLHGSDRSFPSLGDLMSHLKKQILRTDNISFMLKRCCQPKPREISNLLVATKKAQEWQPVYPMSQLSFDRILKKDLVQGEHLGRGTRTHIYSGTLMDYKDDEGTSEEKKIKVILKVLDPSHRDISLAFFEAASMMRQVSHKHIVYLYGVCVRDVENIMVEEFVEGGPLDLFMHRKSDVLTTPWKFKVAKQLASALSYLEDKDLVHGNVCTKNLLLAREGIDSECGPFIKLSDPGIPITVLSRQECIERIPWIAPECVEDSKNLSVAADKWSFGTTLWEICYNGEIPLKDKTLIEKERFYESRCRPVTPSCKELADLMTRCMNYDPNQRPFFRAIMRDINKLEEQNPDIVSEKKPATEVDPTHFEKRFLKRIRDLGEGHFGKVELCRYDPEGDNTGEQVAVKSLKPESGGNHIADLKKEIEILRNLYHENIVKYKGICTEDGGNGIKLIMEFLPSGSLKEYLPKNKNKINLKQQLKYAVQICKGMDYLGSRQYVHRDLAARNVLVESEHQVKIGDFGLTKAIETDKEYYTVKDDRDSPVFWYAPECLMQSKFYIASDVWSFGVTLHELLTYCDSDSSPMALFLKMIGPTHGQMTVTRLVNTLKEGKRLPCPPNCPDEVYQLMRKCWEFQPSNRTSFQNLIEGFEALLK
Assay [18] addresses T1, Serine/threonine-protein kinase Sgk3 (Homo sapiens) (UniProt Q96BR1).
T1 sequence (whole entry): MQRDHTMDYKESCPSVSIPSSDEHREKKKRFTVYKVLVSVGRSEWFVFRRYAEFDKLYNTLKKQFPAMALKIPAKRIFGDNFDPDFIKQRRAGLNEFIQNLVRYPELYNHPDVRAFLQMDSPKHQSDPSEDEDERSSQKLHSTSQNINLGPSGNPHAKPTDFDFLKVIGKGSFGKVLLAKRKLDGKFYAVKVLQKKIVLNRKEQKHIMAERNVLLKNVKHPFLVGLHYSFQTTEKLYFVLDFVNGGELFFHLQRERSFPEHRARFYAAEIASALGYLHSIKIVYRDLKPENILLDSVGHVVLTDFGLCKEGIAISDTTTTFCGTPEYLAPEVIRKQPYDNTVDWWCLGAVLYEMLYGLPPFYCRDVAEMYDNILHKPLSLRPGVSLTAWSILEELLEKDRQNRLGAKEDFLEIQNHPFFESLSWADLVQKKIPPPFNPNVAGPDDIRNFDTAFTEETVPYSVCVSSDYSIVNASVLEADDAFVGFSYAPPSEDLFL
The experiment in a line: Selectivity interaction (KinomeScan (DiscoverX)) EUB0001619a SGK3. To be noted: at 1 µM.

The target in assay [19] is RAC-beta serine/threonine-protein kinase (Homo sapiens) (UniProt P31751). The experiment in a line: Selectivity interaction (Kinase panel (literature)) EUB0001199aCl AKT2. As to conditions: at 1 µM.

Sequence of Casein kinase I isoform delta (P48730 whole entry, looked up, canonical isoform): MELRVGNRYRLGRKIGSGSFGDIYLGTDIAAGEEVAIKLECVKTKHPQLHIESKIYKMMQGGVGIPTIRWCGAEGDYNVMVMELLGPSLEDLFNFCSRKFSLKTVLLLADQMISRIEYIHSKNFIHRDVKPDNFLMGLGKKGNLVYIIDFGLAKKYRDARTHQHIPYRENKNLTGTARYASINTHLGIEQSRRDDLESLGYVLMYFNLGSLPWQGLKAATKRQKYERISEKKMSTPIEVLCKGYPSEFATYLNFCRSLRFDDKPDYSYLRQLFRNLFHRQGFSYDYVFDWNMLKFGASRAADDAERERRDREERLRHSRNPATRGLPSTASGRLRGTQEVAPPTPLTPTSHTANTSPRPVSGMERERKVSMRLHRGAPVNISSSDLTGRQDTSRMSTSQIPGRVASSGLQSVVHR
Sequence of Tyrosine-protein kinase Lck (P06239 2-509 limits assumed): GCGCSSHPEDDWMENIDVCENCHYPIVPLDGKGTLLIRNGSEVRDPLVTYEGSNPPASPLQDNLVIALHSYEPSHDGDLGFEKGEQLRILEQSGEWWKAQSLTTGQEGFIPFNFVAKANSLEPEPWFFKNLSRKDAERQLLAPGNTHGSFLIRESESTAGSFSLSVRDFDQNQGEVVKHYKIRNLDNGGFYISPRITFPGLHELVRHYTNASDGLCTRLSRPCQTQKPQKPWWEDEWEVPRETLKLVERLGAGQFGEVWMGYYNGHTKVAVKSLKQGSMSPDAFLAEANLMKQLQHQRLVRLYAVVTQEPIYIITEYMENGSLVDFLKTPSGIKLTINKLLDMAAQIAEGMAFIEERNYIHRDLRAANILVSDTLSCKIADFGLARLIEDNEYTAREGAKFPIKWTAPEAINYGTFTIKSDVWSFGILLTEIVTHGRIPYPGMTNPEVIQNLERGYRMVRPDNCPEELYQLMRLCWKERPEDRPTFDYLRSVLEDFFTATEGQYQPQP
Sequence of Ribosomal protein S6 kinase alpha-1 (Q15418 whole entry): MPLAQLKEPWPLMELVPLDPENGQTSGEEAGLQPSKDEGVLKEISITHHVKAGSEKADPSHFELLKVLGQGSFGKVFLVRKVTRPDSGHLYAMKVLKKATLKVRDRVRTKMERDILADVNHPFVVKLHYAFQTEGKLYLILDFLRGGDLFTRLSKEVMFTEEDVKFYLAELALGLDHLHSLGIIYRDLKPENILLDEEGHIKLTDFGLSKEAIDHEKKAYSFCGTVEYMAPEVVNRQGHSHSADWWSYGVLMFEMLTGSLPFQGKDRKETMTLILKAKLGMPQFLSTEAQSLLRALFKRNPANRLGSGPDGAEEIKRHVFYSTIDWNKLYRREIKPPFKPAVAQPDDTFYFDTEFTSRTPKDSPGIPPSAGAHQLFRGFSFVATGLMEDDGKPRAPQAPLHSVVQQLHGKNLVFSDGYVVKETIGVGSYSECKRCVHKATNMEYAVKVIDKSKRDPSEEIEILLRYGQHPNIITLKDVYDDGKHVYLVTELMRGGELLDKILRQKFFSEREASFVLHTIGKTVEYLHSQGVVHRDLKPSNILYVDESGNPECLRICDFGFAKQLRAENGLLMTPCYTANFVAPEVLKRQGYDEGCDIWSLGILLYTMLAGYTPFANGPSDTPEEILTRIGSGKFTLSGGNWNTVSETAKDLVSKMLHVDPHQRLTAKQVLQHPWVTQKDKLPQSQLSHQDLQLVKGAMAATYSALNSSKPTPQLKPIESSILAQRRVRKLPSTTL

For `Cc1ccc(-c2ccc3c(ccc4sc5c(c43)NC[C@@H](C)NC5=O)n2)cn1`, the % of inhibition in assay [1] is 43%.

As for `Cc1cc([C@@H](C)Nc2ccccc2C(=O)O)c2nc(N3CCOCC3)cc(=O)n2c1` [AZD-6482], the % of control in [2] was 96%.

Turning to `Nc1cnc(N2CCc3cc(S(=O)(=O)Nc4c(F)cc(Cl)cc4F)cc(N4CCCC4=O)c32)nc1` [TP-020n], the % of control in assay [3] is 61%.

In turn, `CCC(=O)N1CCN(c2ccc(-n3c(=O)ccc4cnc5ccc(-c6cnc7ccccc7c6)cc5c43)cc2C(F)(F)F)CC1` came in with a % of control in assay [4] of 77%.

As to `COc1cc(Nc2nc(C)cc(-c3cnn4nc(OC)ccc34)n2)cc(C(F)(F)F)c1`, the % of control in assay [5] was found to be 95%; in [6] it was 78%; in assay [7], 100%; in [8] it was 98%.

Regarding `Cc1cc(F)c(C(=O)Nc2cccc(-c3nncn3C(C)C)n2)cc1-n1cnc(C2CC2)c1`, the % of control in assay [9] stood at 92%.

As to `CC(=O)c1cc(-c2ccccc2OCC2CC2)c2ncccn12`, on Nischarin (Homo sapiens), the % of control came to 87%.

As to `C=CC(=O)Nc1cc(-n2c(=O)ccc3cnc4ccc(-c5ccc(NS(C)(=O)=O)cc5)cc4c32)ccc1C`, the % of control in assay [10] (at 1 µM) turned out to be 84%; in assay [10] (at 10 µM) it was 90%; in assay [11] (at 1 µM), 92%; in [11] (at 10 µM), 100%.

With `O=C(NOC[C@H](O)CO)c1ccc(F)c(F)c1Nc1ccc(I)cc1F`, the % of control in assay [12] stood at 100%; in assay [13], 88%.

`Cn1cc(-n2cnc3c(NCc4nc5cc(Cl)c(Cl)cc5[nH]4)nc(N4CCOCC4)nc32)cn1` gave a % of control in [14] of 1.16%.

Regarding `CC[C@@H]1[C@H](F)C(=O)N[C@@H]1COc1nccc2cc(C(N)=O)c(OC)cc12` [ZIMLOVISERTIB], the % of inhibition in [15] was found to be 13.8%.

As for `COCC(=O)NC/C=C/c1ccc2ncnc(Nc3ccc(Oc4ccc(C)nc4)c(C)c3)c2c1` [CP-724714], in assay [16], the % of control amounted to 98%.

`N#Cc1cccc(-c2c[nH]c3ncnc(N4CCOCC4)c23)c1`: the % of inhibition in [17] was -1%. In [18], this compound came in with a % of control of 100%.

With `CN1Cc2nccc(-c3cn(C)nc3-c3ccc(F)cc3)c2C1=O`, in [19], the % of inhibition turned out to be 7%.
